Results on one sequence are retold here after article PMC11607671, “Antiviral activity of cathelicidins against porcine epidemic diarrhea virus (PEDV): Mechanisms, and efficacy” (Virus Research, 2024).

For assay [1], the system named is PEDV. As to the kind of experiment: Transmission electron microscopy of peptide-treated virus. Also on record: species or system Porcine epidemic diarrhea virus. Particulars: PEDV treated with 10 µM peptide, negative stain, Fig. 9. As for the experimental part:
PEDV was treated with CATH-B1, LL-37, PMAP-23, and PMAP-36 for one minute at 37 °C. Subsequently, 10 µL of the sample was placed onto a freshly carbon-coated copper grid. The grids were washed 3 times with PBS and then fixed with 1% glutaraldehyde (Sigma-Aldrich, St. Louis, MO, USA) in PBS for 10 min. Following this fixation, the grids were rinsed 2 times with PBS and 4 times with MilliQ water. They were stained for 5 min in Uranyl Acetate (pH 7) then briefly washed with methylcellulose/uranyl acetate (pH 4) and incubated for 5 min on ice. Finally, the grids were looped out of the solution and air-dried. The samples were subsequently examined in a JEM1010 (JEOL) equipped with a Veleta 2k × 2k CCD camera (EMSIS, Munster, Germany).
Fig. 9 The effect of AMPs on the morphology of the virus. PEDV (MOI=0.3), which was pre-incubated with peptides. TEM images were taken of PEDV alone (A–D), PEDV treated with 10 µM LL-37 (E-H), PEDV treated with 10 µM CATH-B1 (I-L), PEDV treated with 10 µM PMAP-23 (M, N), and PEDV treated with 10 µM PMAP-36 (O, P). […] Micrographs were captured with a pixel size of 0,5 nm and analyzed visually using ImageJ. The micrographs are representative of observations from three independent experiments. Scale bars represent 100 nm.

The test system of assay [2] is PEDV-GFP. The assay can be described thus: Co-incubation antiviral assay, PEDV-GFP MOI=0.3, Vero cells (fluorescence microscopy and flow cytometry). Type of assay: cell-based, Porcine epidemic diarrhea virus. The protocol: In order to determine the effect of AMPs on the infectivity of PEDV, Vero cells (5 × 10^5 per well) were seeded in 12-well plates and cultured overnight at 37 °C, 5% CO2. In a co-incubation of virus and AMPs experiments (Fig. 2A), the mixture of AMPs (0–10 µM) and PEDV-GFP (MOI= 0.3) in a 1 mL volume of DMEM (P/S + 10% FCS) was added to the cells and incubated at 37 °C. After 2 h, the supernatant was replaced with fresh DMEM (P/S + 10% FCS) and incubated for 24 h. Subsequently, the cells were washed 2 times with flow cytometry buffer (500 mL PBS+ 10 mL FCS+ 250 µL of 10% NaN3) and were imaged with an EVOS M5000 Imaging System for semi-quantitative determination of infectivity. Eventually, cells were carefully detached by 2.5% trypsin, stained with ViaKrome 808 fixable viability dye (1:1000), and incubated for 30 min at 4 °C. Following washing, the cells were fixed using 50 µL of 4% PFA for 10 min, and a minimum of 1 × 10^5 cells were acquired using the CytoFLEX LX Flow Cytometer (FC)(Beckman Coulter, USA). Data was analyzed using FlowJo software v.10.6 (Flowjo LCC, Ashland, OR, USA).
Fig. 2 Effect of AMPs on the infectivity of PEDV (MOI=0.3). A) Experimental set-up of the ‘co-incubation assay’; Vero cells were subjected to 2 h exposure to a combination of AMPs and PEDV-GFP. Afterward, the supernatant was replaced, and the cells were incubated for an additional 24 h B) Fluorescent microscopy (20 × magnification) was performed to visualize the fluorescence signal of GFP in the presence of 1, 5, and 10 µM AMPs. The cell-only sample consists exclusively of cells while the no-peptide sample contains only PEDV-GFP, with no peptides present.
Fig. 3 Antiviral activity of AMPs as determined by flow cytometry (FC). A) The percentage of GFP-positive cells following a 2 h incubation with a combination of PEDV and AMPs. […] The values reported here depict the average ± SD derived from three independent experiments performed in duplicate. * p < 0.05; ** p < 0.01.
On the technique in general: Flow cytometry measures light scatter and fluorescence of single cells or particles in a stream.

Assay [3] deals with PEDV. As to the kind of experiment: Peptide-virus interaction assay with Capto Core 700 beads. Type of assay: cell-based, Porcine epidemic diarrhea virus. Particulars: Fig. 8. As for the experimental part:
In order to determine if CATH-B1 and LL-37 physically interact with PEDV, Capto Core 700 beads (GE Healthcare Life Sciences, Chicago, IL, USA) were used to selectively eliminate unbound AMPs. PEDV were pre-incubated with or without CATH-B1/LL-37 in Opti-MEM medium, and Capto Core 700 beads were added, followed by a 1 h incubation at 4 °C while slowly rotating. After centrifugation, supernatants were collected and applied to the cells. To make sure the AMP was removed effectively, we tested samples with peptides but no virus using the same process. The collected supernatants were used to inoculate cells, and the number of infected cells was determined using the described method.
Fig. 8 Interactions between CATH-B1 and LL-37 with PEDV. CATH-B1/LL-37 were pre-incubated with the virus, and subsequently, the peptide and virus were separated using Capto Core beads. The supernatant containing the separated virus was then employed to infect Vero cells. […] The data is presented as the mean ± SEM of three independent experiments in duplicate, each with triplicate samples. **** p < 0.0001.

In assay [4] the test system is PEDV-GFP. As to the kind of experiment: Pre-incubation (pre-treatment) antiviral assay. The class given is cell-based, Porcine epidemic diarrhea virus. As to conditions: Vero cells treated 3 h with AMPs (0-10 µM), washed, then infected with PEDV-GFP MOI 0.3 for 2 h; FC; Fig. 6B, C. As for the experimental part:
The effect of AMPs on viral infectivity was also determined when they were added to Vero-cells before (pre-treatment) or after (post-treatment) infection. In the pre-treatment assay (Fig. 6A), Vero cells were treated with different concentrations of CATH-B1 and LL-37 peptides (ranging from 0 to 10 µM) for various durations (1, 2, 3, 4, and 24 h) at 37 °C. Subsequently, the cells were washed 2 times with PBS and infected with PEDV-GFP at an MOI of 0.3 for 2 h
In post-incubation assays (Fig. 7A), cells were initially exposed to the virus for 2 h, washed 2times with PBS and subsequently treated with AMPs for 3 h Both for pre- and post-infection assays, after the respective incubation periods, the cells were assessed using fluorescence microscopy and quantified using FC as described above.
Fig. 6 Effects of AMPs in pre-incubation assay. A) Experimental set-up of pre-incubation experiment. B) FC was employed to quantify the percentage of GFP-positive cells during pre-incubation. […] The reported values represent the mean ± SD derived from three independent experiments performed in triplicate. * p < 0.05; ** p < 0.01.

With “LLGDFFRKSKEKIGKEFKRIVQRIKDFLRNLVPRTES [LL-37, human cathelicidin antimicrobial peptide, 37 residues]”, the “virus aggregation (TEM)” value with PEDV [1] was “in some cases, extensive virus aggregation”. In addition, in the assay on PEDV [1] (one minute at 37 °C), the “effect on virus morphology / membrane (TEM)” value is “significant membrane disruption”. Also, the “percentage of GFP-positive cells (FC), co-incubation” value in the assay on PEDV-GFP [2] (10 µM peptide, PEDV-GFP MOI=0.3, 2 h co-incubation then 24 h, no-peptide control approximately 35%, three independent experiments in duplicate, Fig. 3A) was 1–2%. The “infected cells by fluorescent microscopy, co-incubation” value with PEDV-GFP [2] (PEDV-GFP MOI=0.3, 5 and 10 µM peptide, 2 h co-incubation then 24 h, compared to control without peptide, Fig. 2B) is listed as “reduced numbers of infected cells”. Moreover, in the assay on PEDV [3] (Capto Core 700 beads, Vero cells), the “virus infectivity, peptide pre-incubated with beads before PEDV introduction” value was “minimal effects on virus infectivity”. For the same sequence, the “virus infectivity, peptide incubated with PEDV without beads” value with PEDV [3] (no Capto Core 700 beads, Vero cells) is reported as “a decrease in virus infectivity”. In addition, in the assay on PEDV [3] (peptide + PEDV, then Capto Core 700 beads 1 h at 4 °C, supernatant applied to Vero cells), the “antiviral activity when peptide is combined with virus and beads” value is listed as “lost its inhibitory effect”. Besides, in the assay on PEDV-GFP [4], the “antiviral activity in pre-incubation assay, in words” value is recorded as “potent inhibition of viral infection in Vero cells at all three concentrations”.
